Data taken from article PMC9965520, “An Efficient Peptidomics Screening for Exogenous Substrates and Inhibitory Peptides of the Dipeptidase ACE from Milk Hydrolysate” (Pharmaceutics, 2023).
No end group written: not given here.

Biological target: T1, ACE (Oryctolagus cuniculus, UniProt P12822)
T1 sequence (P12822 34-1310): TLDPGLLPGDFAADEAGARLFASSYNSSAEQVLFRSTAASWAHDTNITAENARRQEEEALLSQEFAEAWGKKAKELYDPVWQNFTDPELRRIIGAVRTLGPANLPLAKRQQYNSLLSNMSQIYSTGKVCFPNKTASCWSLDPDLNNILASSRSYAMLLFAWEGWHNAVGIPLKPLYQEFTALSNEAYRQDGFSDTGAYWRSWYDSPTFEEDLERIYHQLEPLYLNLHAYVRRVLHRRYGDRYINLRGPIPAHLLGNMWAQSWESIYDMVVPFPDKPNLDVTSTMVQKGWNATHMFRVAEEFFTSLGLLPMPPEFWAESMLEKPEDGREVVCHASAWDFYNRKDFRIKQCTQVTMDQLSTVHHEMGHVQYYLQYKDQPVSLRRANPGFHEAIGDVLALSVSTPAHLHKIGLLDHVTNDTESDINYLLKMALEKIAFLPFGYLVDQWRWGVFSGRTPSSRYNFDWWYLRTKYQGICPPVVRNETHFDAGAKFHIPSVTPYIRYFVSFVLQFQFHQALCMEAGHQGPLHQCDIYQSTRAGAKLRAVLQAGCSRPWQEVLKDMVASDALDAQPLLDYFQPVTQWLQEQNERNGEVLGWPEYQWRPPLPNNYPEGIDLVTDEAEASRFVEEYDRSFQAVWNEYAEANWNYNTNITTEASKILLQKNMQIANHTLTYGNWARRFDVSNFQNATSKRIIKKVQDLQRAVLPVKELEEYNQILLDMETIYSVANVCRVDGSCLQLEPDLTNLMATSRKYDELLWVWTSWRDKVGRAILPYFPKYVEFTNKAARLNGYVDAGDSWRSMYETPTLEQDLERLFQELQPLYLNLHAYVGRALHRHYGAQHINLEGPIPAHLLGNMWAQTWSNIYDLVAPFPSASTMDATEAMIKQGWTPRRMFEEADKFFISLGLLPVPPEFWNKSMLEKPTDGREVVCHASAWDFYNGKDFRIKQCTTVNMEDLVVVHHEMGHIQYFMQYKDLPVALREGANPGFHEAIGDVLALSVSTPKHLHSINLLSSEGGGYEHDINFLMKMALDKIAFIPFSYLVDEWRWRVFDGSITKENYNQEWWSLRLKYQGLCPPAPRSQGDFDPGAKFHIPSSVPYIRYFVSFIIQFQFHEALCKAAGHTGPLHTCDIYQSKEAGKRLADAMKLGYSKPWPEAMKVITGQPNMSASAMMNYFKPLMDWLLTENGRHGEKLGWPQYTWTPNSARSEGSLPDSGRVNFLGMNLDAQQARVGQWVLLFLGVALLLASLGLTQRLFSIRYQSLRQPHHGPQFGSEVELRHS
Test: ACE pre-incubation of milk hydrolysate peptide libraries, stable-isotope dimethyl labeling and LC-MS/MS (D/H ratio)
Format: in vitro ADME, rabbit
Parameters: ACE (EC 3.4.15.1, 1 unit) from rabbit lungs; purchased Sigma Chemical Co. (St. Louis, MO, USA); host or cells: rabbit lungs (tissue-derived enzyme)
Conditions: milk hydrolysate peptide library (<3 kDa); ACE-treated (0.05 mU/μL ACE, borate buffer, 37 °C, 3 h: 1.5 h static + 1.5 h 200 rpm; D-labeled) versus untreated (H-labeled) peptide; intensity ratio in LC-MS; <1 = hydrolysed by ACE
Protocol: The peptide libraries (200 μg) dissolved in borate buffer were equally divided into two parts, one was without any treatment (control group); the other part (experimental group) was incubated with 0.05 mU/μL ACE at 37℃ for 1.5 h statically, followed by gentle shaking at 200 rpm for another 1.5 h, and then the ACE reaction was quenched using 60 μL of 1N HCl. After lyophilization, both samples were redissolved in 100 μL of 0.1M sodium acetate and modified using stable-isotope dimethyl labeling according to the previous study with slight modifications. Briefly, the control group (without ACE incubation) had 4 μL of formaldehyde (37% solution in H2O) and 1 M NaBH3CN (10 μL) added to it; the experimental group had 20% formaldehyde-d2 (8 μL) and 1M NaBH3CN (10 μL) added to it. After 1h, 5 μL of ammonia (28% solution in H2O) were added individually to both groups to stop the reaction. The experimental group and the control group were combined and desalted using the PepClean™C18 spin column. The resulting peptide mixture was lyophilized and kept at −20 °C prior to LC-MS/MS analysis. Formaldehyde is known to the state of California to cause cancer; special caution was taken including the use of surgical gloves and a fume hood when formaldehyde was handled.
The combined mixture re-dissolved in 5% ACN containing 0.1% formic acid was separated using an Ultimate 3000 RSLC system (Dionex, Sunnyvale, CA, USA) coupled with a C18 column (Acclaim PepMap RSLC, 75 μm × 150 mm, Thermo Scientific, Waltham, Middlesex, MA, USA) and analyzed with a Thermo Q-ExactiveTM mass spectrometer (Thermo Scientific Inc., Waltham, Middlesex, MA, USA). The elution solution was composed of mobile phase A (0.1% formic acid in water) and B (0.1% formic acid in 95% acetonitrile). The elution gradient was arranged as follows: (i) isocratic elution using 1% B in the first 5.5 min for sample loading, (ii) linear gradient from 1% to 60% B in the next 39.5 min, (iii) linear gradient from 60% to 80% B in the following 10 min, and finally (iv) isocratic elution using 1% solution B for 10 min. The flow rate applied in the LC separation was maintained at 250 µL/min. The separated peptides were analyzed and quantified using Q-ExactiveTM mass spectrometry which was operated in the data-dependent mode and switched automatically between MS and HCD-MS2. A full MS scan was carried out in a 100 and 1500 m/z range, and the 14 ions of the highest intensities were selected for MS/MS scans. The RAW data were converted to the MGF file format followed by database-assisted sequencing with PEAKS DB using PEAKS Studio X (Bioinformatics Solutions Inc., Waterloo, ON, Canada). The parameters used for peptide identification were listed as follows: (1) Database: UniProt_SwissProt (Bos taurus); (2) Enzyme: pepsin, trypsin, α-chymotrypsin, or GI (the combination of these three proteases); (3) Type of enzyme: Unspecific; (4) Instrument: Orbitrap; (5) Parent mass error tolerance: 20 ppm; (6) Fragment mass error tolerance: 0.6 Da; (7) Variable modifications: Dimethyl (K), Dimethyl (N-term), Dimethyl:2H(4) (K), and Dimethyl:2H(4) (N-term) were used for identification and quantitative analysis. The sequence identified through the database was validated by manually matching with the MS/MS spectrum in the raw data. In addition to MS/MS analysis coupled with PEAKS studio, the ACE’s substrate candidates were further confirmed using the synthetic peptides with corresponding sequences by comparison with their LC retention times, m/z values, and MS/MS spectra. The relative abundances of hydrogen (H) and deuterium (D) labeled peptides were quantified based on the peak areas in their corresponding selective ion chromatograms (SIC). The D/H ratio of identified peptide with the same sequence was further examined by their relative signal intensities in MS spectrum. Theoretically, the D/H ratio of the isobaric pair should stay at 1 if the peptide will not react with ACE. […]

D/H Ratio	Substance
0.26	LVYPFPGPIHNSL [LL-13]
0.33	YVPLGTQ [YQ-7]

Further lines, the substance ahead of its results:

Substance	D/H Ratio
LHLPLPLL [LL-8]	0.74
AYFYPELFR [AR-9]	0.19
FFVAPFPEVF [FF-10]	0.87
HLPLPLLQSW [HW-10]	0.12
